68 compounds from ChEMBL document CHEMBL5604062, “ASAP - ZIKV NS2B-NS3 protease fluorescence dose response” (2024) can be followed below.

Where “and” joins values, the source holds several entries; their conditions need not be identical. Equal values may be shown once.

The target of the experiment is Nonstructural protein 3 (Zika virus, UniProt A0A024AXB9). The experiment in a line: Functional biochemical assay to identify treatments for viral infectious disease that targets Zika NS2B-NS3 protease. Utilizing a direct enzyme activity measurement method, reading the fluorescence intensity is used to characterize the relative potency of inhibitors as IC50. Details: species or system PRVABC59.
Sequence of Nonstructural protein 3 (A0A024AXB9 whole entry): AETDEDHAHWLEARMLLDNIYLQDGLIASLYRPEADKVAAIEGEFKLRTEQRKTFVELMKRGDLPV
As for `Cc1ncc2c(n1)CCC[C@H]2NC(=O)c1cccc2c1CC(=O)N2`, the IC50 is > 25000 nM.

`O=C(Nc1ccc2c(c1)CNC2)c1cc(F)cc(C=C2CCS(=O)(=O)CC2)c1` displayed a half-maximal inhibitory concentration (IC50) of 645 nM.

Consider `NCCc1csc2cc(C(=O)Nc3cc([C@H]4CCOC4)ccn3)ccc12`, for which the concentration for half-maximal inhibition (IC50) was > 25000 nM.

Turning to `O=C1Cc2c(cccc2C(=O)N[C@H]2C[C@H](OC(F)F)C2)N1`, the IC50 is > 25000 nM.

As for `Cc1c(C(=O)Nc2ccc3c(c2)C(=O)N(C)C3)cc(C2CC2)n1C`, the concentration for half-maximal inhibition (IC50) is > 25000 nM.

Take `Cc1c(C(=O)Nc2ccc3c(c2)CCS3(=O)=O)cc(C2CC2)n1C`: the 50% inhibitory concentration (IC50) was > 25000 nM.

Turning to `Cc1cc(NC(=O)c2cc(C3CC3)n(C)c2C)ccc1N1CCCC1=O`, the IC50 is > 25000 nM.

With `Cc1c(C(=O)Nc2ccc3c(c2)CCCC(=O)N3C)cc(C2CC2)n1C`, the IC50 was > 25000 nM.

For `N#Cc1cccc(-c2nc3c(C(=O)Nc4ccc5c(c4)CNC5)cc(F)cc3[nH]2)c1`, the IC50 was 33 nM (2×) and 13 nM.

As to `O=C(Nc1cc2c(c(-c3c[nH]c(=O)c(F)c3)c1)CNC2)c1cc(F)cc2[nH]ncc12`, the concentration for half-maximal inhibition (IC50) is 25 nM and 15 nM.

Regarding `Cc1c(C(=O)Nc2ccc3c(c2)CCCC(=O)N3)cc(C2CC2)n1C`, the 50% inhibitory concentration (IC50) is > 25000 nM.

Turning to `Cc1c(C(=O)Nc2cccc(-c3ccc(=O)[nH]n3)c2)cc(C2CC2)n1C`, the half-maximal inhibitory concentration (IC50) is > 25000 nM.

On to `COc1cc(OC)cc([C@H]2CCN(C(=O)Nc3ccc4c(c3)CNC4)C2)c1`, for which the half-inhibitory concentration (IC50) was > 25000 nM.

With `COC(=O)[C@H](C)n1cc2c(C(=O)Nc3ccc4c(c3)CNC4)cc(Cl)cc2n1`, the midpoint of inhibition, the IC50, lay at 199 nM.

In the case of `COCn1ncc2c(C(=O)Nc3ccc4c(c3)CNC4)cc(Cl)cc21`, the IC50 was 80 nM and 54 nM.

In the case of `CO[C@H]1C[C@H](n2ncc3c(C(=O)Nc4ccc5c(c4)CNC5)cc(Cl)cc32)C1`, the 50% inhibitory concentration (IC50) is 54 nM and 42 nM.

For `C=CC[C@H]1NCc2cc(NC(=O)c3ccc4c(c3)CC(=O)N4)ccc21`, the 50% inhibitory concentration (IC50) is > 25000 nM.

`Brc1cc(CNc2ccc3c(c2)CNC3)c2cc[nH]c2c1` gave an IC50 of 4320 nM.

With `O=C(Nc1cc(-c2cccnc2)ccn1)c1cc(C2CC2)on1`, the IC50 was > 25000 nM.

Take `Cc1nc(C2CC2)[nH]c1C(=O)Nc1cc(-c2cccnc2)ccn1`: the half-maximal inhibitory concentration (IC50) is > 25000 nM.

Compound `CN1C(=O)CC[C@H]1c1nc2c(C(=O)Nc3ccc4c(c3)CNC4)cc(F)cc2[nH]1` gave an IC50 of 264 nM.

Take `O=C(Nc1cc(-c2cccnc2)ccn1)c1cn2c(n1)CCC2`: the half-maximal inhibitory concentration (IC50) is > 25000 nM.

Consider `CC1(c2nc(C(=O)Nc3cc(-c4cccnc4)ccn3)no2)CC1`, for which the IC50 was > 25000 nM.

As to `COC(=O)c1cc(C(=O)Nc2ccc3c(c2)CNC3)cc2[nH]ccc12`, the IC50 is > 25000 nM.

For the compound `O=C1Cc2c(cccc2C(=O)N[C@H]2CC[C@H](OC3CCCC3)CC2)N1`, the 50% inhibitory concentration (IC50) was > 25000 nM.

Turning to `N#Cc1cc2c(cc1NC(=O)c1cc(F)cc3[nH]ncc13)CNC2`, the half-inhibitory concentration (IC50) is 16 nM (2×) and < 12 nM.

Regarding `O=C1Cc2c(cccc2C(=O)NC2(c3ncccc3F)CC2)N1`, the IC50 was > 25000 nM.

As for `CCOc1cccc(-c2cccc(NC(=O)c3cc(C4CC4)n(C)c3C)n2)c1`, the IC50 is > 25000 nM.

With `Cc1[nH]c(-c2ccccc2)cc1C(=O)Nc1cc(-c2cccnc2)ccn1`, the half-inhibitory concentration (IC50) is > 25000 nM.

In turn, `CC(C)NC(=O)[C@H](Nc1ccc2c(c1)CN(C)C2)c1cc(Cl)cc2[nH]ncc12` came in with an IC50 of 533 nM. This lies in the sub-micromolar range.

Regarding `Cc1c(C(=O)Nc2cccc(-c3ccc(O)nc3)c2)cc(C2CC2)n1C`, the half-maximal inhibitory concentration (IC50) was > 25000 nM.

`Fc1cc(CNc2ccc3c(c2)CNC3)c2cc[nH]c2c1`: inhibition was half-maximal at 9310 nM (IC50).

Turning to `CC(C)(O)c1cncc(NC(=O)c2cccc3c2CC(=O)N3)c1`, the half-maximal inhibitory concentration (IC50) is > 25000 nM.

Compound `O=C(Nc1ccc2c(c1)CNC2)c1cc(Cl)cc2c1cnn2C[C@H]1CCCO1` registered an IC50 of 136 nM.

With `C[C@]1(O)C(=O)Nc2cc(F)cc(C(=O)Nc3ccc4c(c3)CNC4)c21`, the IC50 was found to be 171 nM.

Consider `O=C1Cc2c(cc(F)cc2C(=O)Nc2cc([C@H]3CCOC3)ccn2)N1`, for which the IC50 is > 25000 nM.

On to `Cc1c(C(=O)Nc2ccc3c(c2)CS(=O)(=O)C3)cc(C2CC2)n1C`, for which the concentration for half-maximal inhibition (IC50) was > 25000 nM.

On to `COC(=O)N1CCc2cc(NC(=O)c3cc(C4CC4)n(C)c3C)ccc21`, for which the IC50 was > 25000 nM.

The compound `CCc1cc(C(=O)Nc2ccc3c(c2)CNC3)cc2cn[nH]c12` had an IC50 of 1610 nM.

For the compound `O=C(Nc1ccc2c(c1)CNC2)c1cc(F)cc2[nH]c(-c3ccc(F)cc3)nc12`, the IC50 was 22 nM and 23 nM and 14 nM.

`CC(C)n1ncc2c(C(=O)Nc3ccc4c(c3)CNC4)cc(Cl)cc21` displayed an IC50 of 186 nM.

As to `Cc1cc(=O)[nH]c(-c2cccc(NC(=O)c3cc(C4CC4)n(C)c3C)c2)n1`, the IC50 is > 25000 nM.

With `Cc1ccc(NC(=O)c2cc(C3CC3)n(C)c2C)cc1-c1cccnc1`, the IC50 was > 25000 nM.

With `O=C(Nc1ccc2c(c1)CNC2)c1cc(F)c2[nH]nnc2c1`, the half-maximal inhibitory concentration (IC50) is > 25000 nM.

Regarding `O=C(Nc1ccc2c(c1)CNC2)c1cc(F)cc(C2=CCOCC2)c1`, the 50% inhibitory concentration (IC50) is 362 nM.

Regarding `Cc1c(NC(=O)c2cccc3c2CC(=O)N3)cnn1C1CCOCC1`, the 50% inhibitory concentration (IC50) is > 25000 nM.

`C=CC[C@H]1NCc2cc(N[C@H](C(=O)NCC(F)F)c3cc(Cl)cc(C4CC4)c3)ccc21` yielded an IC50 of 210 nM.

With `COc1ccc([C@@H]2C[C@H]2NC(=O)c2cccc3c2CC(=O)N3)cc1`, the IC50 was > 25000 nM.

As to `COc1cc(-c2cc(NC(=O)c3cc(F)cc4[nH]ncc34)cc3c2CNC3)ccn1`, the 50% inhibitory concentration (IC50) was 33 nM and 30 nM and 23 nM.

Consider `COCCN1C(=O)CCc2cc(NC(=O)c3cc(C4CC4)n(C)c3C)ccc21`, for which the IC50 is > 25000 nM.

`O=C(Nc1cc(-c2cccnc2)ccn1)c1cnn2c1CCCC2` showed an IC50 of 8030 nM.

In the case of `Cc1c(C(=O)Nc2cccc(Cn3ccccc3=O)c2)cc(C2CC2)n1C`, the IC50 was > 25000 nM.

Turning to `CC(C)n1cc2c(C(=O)Nc3ccc4c(c3)CNC4)cc(Cl)cc2n1`, the IC50 is 46 nM and 34 nM.

For `COC(=O)c1cc2c(cc1NC(=O)c1cc(F)cc3[nH]ncc13)CNC2`, the IC50 was 50 nM and 29 nM.

Take `Cc1c(C(=O)Nc2cccc(C(=O)NC3CC3)c2)cc(C2CC2)n1C`: the IC50 was > 25000 nM.

With `COCCNC(=O)[C@H](Nc1cccc([C@H]2CCOC2)c1)c1cc(Br)cc2[nH]ccc12`, the half-inhibitory concentration (IC50) was > 25000 nM.

Turning to `Cc1c(C(=O)Nc2cc(C#N)cn(C)c2=O)cc(C2CC2)n1C`, the IC50 is > 25000 nM.

Take `O=C(Nc1ccc2c(c1)CNC2)c1cc(F)c2[nH]c(=O)[nH]c2c1`: the concentration for half-maximal inhibition (IC50) turned out to be 429 nM.

As to `O=C1C[C@H]2CN(C(=O)Nc3ccc4c(c3)CNC4)CC[C@H]2N1`, the IC50 is > 25000 nM.

For `O=C(Nc1cc(-c2cccnc2)ccn1)c1cc(C2CC2)oc1C1CC1`, the 50% inhibitory concentration (IC50) was > 25000 nM.

Compound `CCCn1ncc2c(C(=O)Nc3ccc4c(c3)CNC4)cc(Cl)cc21` showed an IC50 of 188 nM.

Consider `O=C(Nc1cc2c(c(C3=CCS(=O)(=O)CC3)c1)CNC2)c1cc(F)cc2[nH]ncc12`, for which the 50% inhibitory concentration (IC50) was 38 nM and 30 nM and 26 nM.

As for `Cc1cc(NC(=O)c2cc(C3CC3)n(C)c2C)cnc1N1CCCCC1`, the IC50 is > 25000 nM.

Consider `O=C(Nc1ccc2c(c1)CNC2)c1cc(Cl)cc2c1cnn2C1CCC1`, for which the IC50 was 31 nM and 23 nM.

Take `O=C(Nc1cc(-c2cccnc2)ccn1)c1sc2c(c1Br)CNC2`: the IC50 is > 25000 nM.

`Cn1ncc(C(=O)Nc2cc(-c3cccnc3)ccn2)c1C1CC1` returned an IC50 of 20800 nM. This lies in the double-digit micromolar range.

For `O=C(Nc1cc2c(c(C3=CCOCC3)c1)CNC2)c1cc(F)cc2[nH]ncc12`, the IC50 was 28 nM and 25 nM and 20 nM.

Turning to `O=C1Cc2c(cccc2C(=O)NCC2(F)CC3(CCOCC3)C2)N1`, the half-maximal inhibitory concentration (IC50) was > 25000 nM.
